Laboratory results published in US20080139573A1, “Treatment of resistant Schizophrenia and other CNS disorders” (Copharm, priority 2006, published 2008).
“Also recorded” adds a separate entry of the source.

Experiments:
Type in all cases: in vivo, human
[1] = test system: therapy resistant schizophrenic patient; assay: Case reports: therapy resistant schizophrenic patients switched to oral zuclopenthixol; conditions: for response to previous antipsychotic agents: Case 1, oral, successive, appropriate doses and sufficient duration, compliance controlled
Excerpt: Therapy resistant schizophrenic patient is a schizophrenic patient who has tried two successive antipsychotic agents for a period of 6 weeks at an appropriate dosage with no significant symptomatic relief of symptoms and who was compliant to pharmacological treatment. This definition comprises determining relief of symptoms by measurement on a clinical scale such as PANSS (positive and negative […] scale). The relief should correspond to a reduction of the PANSS scale of at least 20% after a period of 6 weeks treatment of an appropriate dosage. Lack of relief of symptoms should be assessed prospectively and should not be documented on the basis of historical information. Compliance to treatment should be documented through a third party such as nurse or care giver. Lack of compliance is often a reason for unsatisfactory outcome of schizophrenia therapy; if compliance is not documented the diagnosis of therapy resistant schizophrenia cannot be ascertained. Appropriate dosage is defined as an equivalent chlorpromazine of 400-700 mg per day.
Case 1. […] Compliance to treatment was ascertained. Before being given zuclopenthixol, the patient presented severe debilitating schizophrenic symptoms.
Case 2. Subject diagnosed with therapy resistant schizophrenia for the first time. […] Compliance with treatment was ascertained. The patient was then switched to oral zuclopenthixol. Before initiating zuclopenthixol treatment, the patient was considered as “markedly ill”.
Case 3. Subject diagnosed with therapy resistant schizophrenia for the first time. […] Compliance with treatment was ascertained. The patient was then switched to oral zuclopenthixol. Before initiating zuclopenthixol treatment, the patient was considered as “among the most extremely ill patients”. After 8 weeks of treatment with zuclopenthixol, the patient was evaluated as having “much improved”, as confirmed by C.G.I. and P.A.N.S.S.
Case 4. Subject diagnosed with therapy resistant schizophrenia for the first time. The patient had been treated with appropriate doses and for sufficient duration with the following antipsychotics: oral risperidone, oral aripiprazole, oral loxapine, and oral olanzapine. Compliance with treatment was ascertained. The patient was then switched to oral zuclopenthixol. Before initiating zuclopenthixol treatment, the patient was considered as “severely ill”. After 8 weeks of treatment with zuclopenthixol, the patient was evaluated as having “much improved”, as confirmed by C.G.I. and P.A.N.S.S.
Case 5. Subject diagnosed with therapy resistant schizophrenia for the first time. […] The patient was then switched to oral zuclopenthixol. […] After 8 weeks of treatment with zuclopenthixol, the patient was evaluated as having “much improved”, as confirmed by C.G.I. and P.A.N.S.S.

[2] = test system: recurrent depression patient; assay: Case report: recurrent depression, switched to oral zuclopenthixol; conditions: for outcome under previous antidepressants: appropriate doses, sufficient duration, compliance ascertained
Excerpt: Recurrent depressive patient is defined as a patient experiencing two or more successive major depressive episodes that are separated by at least two months of not experiencing adequate symptoms of depression to qualify for major depressive disorder (DSM-IV).
Subject diagnosed with recurrent depression for the first time. […] Compliance with treatment was ascertained. […] After 2 years, the patient had still not relapsed.

[3] = test system: therapy refractory schizophrenic patient; assay: Case report: therapy refractory schizophrenia, switched to oral zuclopenthixol
Excerpt: Subject two diagnosed with therapy refractory schizophrenia for the first time The patient had been treated with appropriate doses and for sufficient duration with oral aripiprazole, oral loxapine and oral olanzapine at appropriate doses and for sufficient duration. Compliance with treatment was ascertained. […] The patient was then switched to oral zuclopenthixol.

[4] = test system: naïve schizophrenic patient; assay: Case report: naïve schizophrenic patient given zuclopenthixol as first antipsychotic; conditions: 50 mg p. o. per day
Excerpt: Naïve schizophrenic patient is a schizophrenic patient who had never been treated with an antipsychotic agent.
After a period of 5 years of treatment, the patient had still not relapsed.

[5] = test system: therapy resistant depression patient; assay: Case report: therapy resistant depression, switched to oral zuclopenthixol; conditions: for response to previous antidepressants: appropriate doses, sufficient duration
Excerpt: Resistant depression patient is defined as a patient not responding to an appropriate pharmacological treatment.
Subject one diagnosed with chronic depression for the first time. […] They were then switched to oral zuclopenthixol. Before initiating oral zuclopenthixol treatment, the patient was considered as “markedly ill”.

[6] = test system: therapy resistant bipolar disorder patient; assay: Case reports: therapy resistant bipolar disorder, prescribed oral zuclopenthixol; conditions: for response to previous treatments: appropriate doses, sufficient duration, compliance ascertained
Excerpt: Resistant bipolar disorder patient is defined as a patient not responding to an appropriate pharmacological treatment.
Case 1. Subject diagnosed with therapy resistant bipolar disorder I presented as having manic state. They had been diagnosed for the first time. […] Compliance with treatment was ascertained. They were then prescribed oral zuclopenthixol. Before initiating oral zuclopenthixol treatment, the patient was considered as “among the most extremely ill patients”. After 8 weeks of treatment with zuclopenthixol, the patient was evaluated as having “much improved”.
Case 2. Subject diagnosed with therapy resistant bipolar disorder 11 presented with depressive symptoms. They had been diagnosed for the first time. […] Compliance with treatment was ascertained. They were then prescribed oral zuclopenthixol. Before initiating oral zuclopenthixol treatment, the patient was considered as “markedly ill”.

[7] = person two, after 8 weeks of treatment
[8] = person one, after 8 weeks of treatment

O=C(CCCN1CCC(O)(c2ccc(Cl)cc2)CC1)c1ccc(F)cc1 [haloperidol] was tested, and the “response to previous antipsychotic agents” value [1] was “did not respond”.
With CNCCC(Oc1ccc(C(F)(F)F)cc1)c1ccccc1 (stereo not shown) [fluoxetine] the “outcome under previous antidepressants” value [2] was “regularly experiencing new episodes of depression”.
In the case of Cl.Cl.OCCN1CCN(CC/C=C2/c3ccccc3Sc3ccc(Cl)cc32)CC1 [zuclopenthixol, 4-[(3Z)-3-(2-chloro-9H-thioxanthen-9-ylidene)propyl]-1-piperazineethanol dihydrochloride], the “effect on schizophrenic symptoms” value ([1]; Case 1, patient, exclusively oral zuclopenthixol, soon after start of treatment) is reported as “major relief of schizophrenic symptoms”, the “evaluation of improvement, confirmed by C.G.I. and P.A.N.S.S.” value ([1]; Cases 2-5, oral, after 8 weeks of treatment, dihydrochloride) is reported as “very much improved; also recorded: much improved” and the “evaluation of improvement, confirmed by C.G.I. and P.A.N.S.S.” value [3, 7] is reported as “much improved”. The remission [3, 7] was “achieve remission”, the “outcome of first antipsychotic treatment” value [4] was “successful” and the “period of treatment without relapse” value [4] was no less than 5 years. The period without relapse ([2]; person) was no less than 2 years, the response to treatment ([2]; person) was “marked response” and the “evaluation of improvement, confirmed by C.G.I.” value [5, 8] was “much improved”. The “reduction of depression on the Hamilton Depression Scale” value [5, 8] was “marked response” and the evaluation of improvement ([6]; after 8 weeks of treatment, Case 1 bipolar I manic state, Case 2 depressive symptoms, dihydrochloride) was “much improved; also recorded: very much improved”.
With CN(C)CCC=C1c2ccccc2CCc2ccccc21 [amytriptiline] the “outcome under previous antidepressants” value [2] was “regularly experiencing new episodes of depression” and the “response to previous antidepressants” value [5] was “without satisfactory response”.
In the case of CN[C@H]1CC[C@@H](c2ccc(Cl)c(Cl)c2)c2ccccc21 [sertraline], the “response to previous antidepressants” value [5] is reported as “without satisfactory response” and the “response to previous treatments” value [6] is reported as “without satisfactory response”.
With O=C1CCc2ccc(OCCCCN3CCN(c4cccc(Cl)c4Cl)CC3)cc2N1 [aripiprazole] the “response to previous antipsychotics” value ([3]; appropriate doses, sufficient duration, significant troublesome residual symptoms remained) was “significant relief of symptoms”.
In the case of Nc1nnc(-c2cccc(Cl)c2Cl)c(N)n1 [lamotrigine], the “response to previous treatments” value [6] is reported as “without satisfactory response”.
Fc1ccc([C@@H]2CCNC[C@H]2COc2ccc3c(c2)OCO3)cc1 [paroxetine] was tested, and the “outcome under previous antidepressants” value [2] was “regularly experiencing new episodes of depression” and the “response to previous antidepressants” value [5] was “without satisfactory response”.
Cc1nc2n(c(=O)c1CCN1CCC(c3noc4cc(F)ccc34)CC1)CCCC2 [risperidone] was tested, and the “response to previous antipsychotic agents” value [1] was “did not respond”.
